PubChem BioAssay (NCI)
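A five-concentration, 48-hour dose response in 96-well plates underlies each endpoint, interpolated linearly between surrounding concentrations. GI50 marks 50% less growth. The concentration for full growth arrest is given as TGI.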

How the values were obtained:
Assay in all cases: NCI tumour cell line growth inhibition, 48 h
[1] = test system: OVCAR-3 ovarian
[2] = test system: K-562 leukemia
[3] = test system: UACC-257 melanoma
[4] = test system: ACHN renal
[5] = test system: NCI-H226 lung
[6] = test system: RPMI-8226 leukemia
[7] = test system: SK-MEL-5 melanoma
[8] = test system: SNB-75 CNS
[9] = test system: CCRF-CEM leukemia
[10] = test system: HCT-116 colon

Compound	TGI [1] [µM]	TGI [2] [µM]	TGI [3] [µM]	TGI [4] [µM]	TGI [5] [µM]	TGI [6] [µM]	TGI [7] [µM]	TGI [8] [µM]	TGI [9] [µM]	TGI [10] [µM]	GI50 [1] [nM]	GI50 [2] [nM]	GI50 [3] [nM]	GI50 [4] [nM]	GI50 [5] [µM]	GI50 [6] [µM]	GI50 [7] [µM]	GI50 [8] [µM]	GI50 [9] [nM]	GI50 [10] [nM]
C[C@@H]1CCC([C@@H](C)[C@H]2CC[C@H]3[C@@H]4CC[C@H]5C[C@@H](O)CC[C@]5(C)[C@H]4CC[C@]23C)=NC1	> 100	> 100	> 100	> 61.5	> 100	> 20.4	42.8	> 71	> 100	> 100	–	–	–	–	–	–	–	–	–	–
CC1(C)CC[C@]2(C(=O)O)CC[C@]3(C)C(=CC[C@@H]4[C@@]5(C)C[C@H](O)[C@H](O)[C@@](C)(C(=O)O)[C@@H]5CC[C@]43C)[C@@H]2C1	> 100	> 100	> 100	> 100	> 100	> 100	> 100	> 100	> 100	> 100	–	–	–	–	–	–	–	–	–	–
CCCCCCCCC/C(=N\NC(=O)c1ccncc1)c1ccc(O)c(O)c1O	> 35.7	> 100	9.32	> 100	14.7	31.5	0.494	> 100	3.63	12.8	61.6	498	293	73.4	0.271	0.195	0.139	0.631	42.6	121
O=C([O][Hg][CH2]C1OCCOC1[CH2][Hg][O]C(=O)c1ccccc1)c1ccccc1 (stereo not given)	3.8	5.46	3.4	3.4	47.3	> 22.6	22.8	29.5	> 23.4	8.37	2160	1830	1890	1950	22.5	7.5	7.58	16	1660	4210
